Calls of active or inactive are those of the source.
Assays:
[1] = Vero E6 cell cytotoxicity, dose response, cytotoxicity control for non-replicating M. tuberculosis project, secondary assay (AID 492998); assay type: functional, VeroE6; conditions: Vero C1008
[2] = system: H4; assay: Luminescence Cell-Based Dose Response HTS to Identify Activators of 5'UTR Stem-Loop Driven Prion Protein mRNA Translation in H4 Neuroglioblastoma Cells. [Related pubchem assays: 1829 (Project Summary), 1814 (Primary HTS)]; assay type: functional; conditions: Homo sapiens
[3] = THP-1 cell cytotoxicity, dose response, cytotoxicity control for non-replicating M. tuberculosis project (AID 489025); assay type: functional
[4] = CFTR ΔF508 corrector activity in bronchial cells, dose response, human bronchial epithelial cells, plate reader, cherry-pick, two tests (AID 743267); assay type: functional, cell-based
[5] = HepG2 cell cytotoxicity, dose response, cytotoxicity control for non-replicating M. tuberculosis project (AID 489018); assay type: functional; conditions: Mycobacterium tuberculosis
[6] = Luminescence Cell-Based Dose Confirmation HTS to Identify Activators of 5'UTR Stem-Loop Driven Alpha-Synuclein mRNA Translation in H4 Neuroglioblastoma Cells. [Related pubchem assays: 1829 (Project Summary), 1814 (Primary HTS)]; assay type: functional
[7] = cytotoxicity in NIH3T3 fibroblasts, dose response, cytotoxicity control for HSP40 inhibitor project, cell-based, CellTiter-Glo luminescence, cherry-pick, set 2 (AID 624265); assay type: functional
[8] = system: Streptococcus; assay: Group A Streptococcus viability loss, dose response, counter-screen for streptokinase expression inhibitor project, luminescence, BacTiterGlo (AID 1915); assay type: functional, organism-based;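 also: potency for reduction of bacterial viability or growth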
[9] = cells; assay type: functional
[10] = system: Streptococcus sp. 'group A'; assay: growth inhibition of control SK(-) GAS strain, dose response, counter-screen for streptokinase expression inhibitor project, luminescence, kanamycin, BacTiterGlo, confirmation (AID 1900); assay type: functional, organism-based
[11] = microbe, parasite or virus in culture; assay type: functional; conditions: Mycobacterium tuberculosis
[12] = molecular target: T1, Streptokinase A (Streptococcus pyogenes serotype M1, UniProt P10520); assay: S. pyogenes streptokinase expression inhibitors, potency, dose response, plasminogen activation absorbance, OD405 (AID 1914); assay type: functional, Streptococcus pyogenes M1 GAS;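 also: secreted streptokinase activity via plasminogen activation per viability signal from cell pellet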
T1 sequence (P10520 whole entry): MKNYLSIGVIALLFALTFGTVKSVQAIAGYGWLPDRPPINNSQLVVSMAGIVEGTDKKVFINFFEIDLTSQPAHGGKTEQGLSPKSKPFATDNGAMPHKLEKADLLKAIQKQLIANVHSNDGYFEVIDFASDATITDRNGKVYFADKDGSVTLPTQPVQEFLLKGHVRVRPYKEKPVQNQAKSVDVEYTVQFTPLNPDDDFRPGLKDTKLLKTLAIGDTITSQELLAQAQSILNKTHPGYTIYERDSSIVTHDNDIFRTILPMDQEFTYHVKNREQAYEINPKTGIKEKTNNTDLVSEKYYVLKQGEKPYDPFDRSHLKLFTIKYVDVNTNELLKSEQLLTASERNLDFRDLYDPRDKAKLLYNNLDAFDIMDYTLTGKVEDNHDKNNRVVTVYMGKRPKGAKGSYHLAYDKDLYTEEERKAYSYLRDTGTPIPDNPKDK

[13] = Luminescence Cell-Based Dose Response HTS to Identify Activators of Luciferase Translation or Activity in H4 […] Cells. [Related pubchem assays: 1829 (Project Summary), 1814 (Primary HTS)]; assay type: functional
[14] = molecular target: G-protein coupled receptor 55 (Homo sapiens, UniProt Q9Y2T6); assay: GPR55 antagonists blocking LPI-driven arrestin recruitment, primary screen, imaging, U2OS, beta-arrestin-GFP, LPI agonist (AID 2013); assay type: functional;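 also: antagonist potency measured as reduced agonist-driven arrestin aggregation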
Sequence of G-protein coupled receptor 55 (Q9Y2T6 whole entry): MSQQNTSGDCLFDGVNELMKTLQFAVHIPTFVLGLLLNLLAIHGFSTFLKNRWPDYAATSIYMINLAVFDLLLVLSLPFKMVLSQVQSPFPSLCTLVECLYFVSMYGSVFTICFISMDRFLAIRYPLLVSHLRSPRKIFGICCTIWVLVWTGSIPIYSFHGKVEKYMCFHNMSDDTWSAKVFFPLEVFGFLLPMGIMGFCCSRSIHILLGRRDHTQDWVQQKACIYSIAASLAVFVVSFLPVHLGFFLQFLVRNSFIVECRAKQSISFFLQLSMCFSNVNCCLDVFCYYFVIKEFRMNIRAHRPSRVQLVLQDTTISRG

[15] = HepG2 cell cytotoxicity, dose response, cytotoxicity control, ATP luminescence, cherry-pick, activator set 2 (AID 1053143); assay type: functional, cell-based
[16] = molecular target: Apelin receptor (Homo sapiens, UniProt P35414); assay: APJ beta-arrestin recruitment antagonism, SAR follow-up, selectivity assay for CCR6 antagonist project, cell-based, luminescent, enzyme-fragment complementation (AID 588359); assay type: functional
[17] = HepG2 cell cytotoxicity, dose response, cytotoxicity control for Shn3 inhibitor project, CellTiter-Glo, cherry-picked (AID 624134); assay type: functional, cell-based
[18] = molecular target: Beta-galactosidase (Escherichia coli, UniProt Q8VNN2); assay: beta-galactosidase enzyme inhibitors and activators, dose response, artefact control for CCR6 antagonist project, biochemical, E. coli enzyme, set 3 (AID 504712); assay type: functional
Sequence of Beta-galactosidase (Q8VNN2 whole entry): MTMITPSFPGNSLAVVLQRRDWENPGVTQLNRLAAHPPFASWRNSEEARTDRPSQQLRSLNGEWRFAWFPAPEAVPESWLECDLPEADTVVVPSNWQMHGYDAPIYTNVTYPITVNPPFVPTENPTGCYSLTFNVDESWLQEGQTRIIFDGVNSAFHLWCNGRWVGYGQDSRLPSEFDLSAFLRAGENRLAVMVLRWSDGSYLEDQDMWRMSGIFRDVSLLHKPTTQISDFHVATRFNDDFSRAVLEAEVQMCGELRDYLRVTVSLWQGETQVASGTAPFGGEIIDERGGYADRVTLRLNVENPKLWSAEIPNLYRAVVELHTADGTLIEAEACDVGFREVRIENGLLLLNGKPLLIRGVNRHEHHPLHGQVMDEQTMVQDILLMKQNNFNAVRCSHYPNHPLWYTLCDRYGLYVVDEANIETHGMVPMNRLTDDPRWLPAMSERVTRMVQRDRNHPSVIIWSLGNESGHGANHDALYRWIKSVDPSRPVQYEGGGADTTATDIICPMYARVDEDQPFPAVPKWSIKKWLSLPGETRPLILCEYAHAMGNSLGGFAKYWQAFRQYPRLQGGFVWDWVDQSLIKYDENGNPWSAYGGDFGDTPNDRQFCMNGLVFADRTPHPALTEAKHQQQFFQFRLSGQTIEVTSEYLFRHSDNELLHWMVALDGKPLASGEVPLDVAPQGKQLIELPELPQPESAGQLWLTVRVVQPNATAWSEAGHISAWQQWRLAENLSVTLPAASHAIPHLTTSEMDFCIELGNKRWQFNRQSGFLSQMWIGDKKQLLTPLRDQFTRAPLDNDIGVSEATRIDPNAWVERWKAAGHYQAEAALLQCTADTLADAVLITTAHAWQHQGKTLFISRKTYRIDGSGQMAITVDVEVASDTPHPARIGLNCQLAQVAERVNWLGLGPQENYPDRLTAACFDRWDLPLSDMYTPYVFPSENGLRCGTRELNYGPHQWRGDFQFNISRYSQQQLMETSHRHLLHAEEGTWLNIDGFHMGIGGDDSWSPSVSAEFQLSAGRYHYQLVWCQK

[19] = molecular target: ATP-binding cassette sub-family B member 6 (Homo sapiens, UniProt Q9NP58); assay: ABCB6 transporter inhibitors, porphyrin accumulation, dose response, flow cytometry, K562-ABCB6 cells, cherry pick 02 (AID 624487); assay type: functional; conditions: read-out: EC50_MICROM
[20] = molecular target: T2, Protein RecA (Mycobacterium tuberculosis, UniProt P9WHJ3); assay: Fluorescence Cell-Free Homogeneous Dose Retest to Identify Inhibitors of RecA-Intein Splicing Activity. [Related pubchem assays (depositor defined):AID2097, AID2223, AID489010, AID492950]; assay type: functional
T2 sequence (P9WHJ3 whole entry): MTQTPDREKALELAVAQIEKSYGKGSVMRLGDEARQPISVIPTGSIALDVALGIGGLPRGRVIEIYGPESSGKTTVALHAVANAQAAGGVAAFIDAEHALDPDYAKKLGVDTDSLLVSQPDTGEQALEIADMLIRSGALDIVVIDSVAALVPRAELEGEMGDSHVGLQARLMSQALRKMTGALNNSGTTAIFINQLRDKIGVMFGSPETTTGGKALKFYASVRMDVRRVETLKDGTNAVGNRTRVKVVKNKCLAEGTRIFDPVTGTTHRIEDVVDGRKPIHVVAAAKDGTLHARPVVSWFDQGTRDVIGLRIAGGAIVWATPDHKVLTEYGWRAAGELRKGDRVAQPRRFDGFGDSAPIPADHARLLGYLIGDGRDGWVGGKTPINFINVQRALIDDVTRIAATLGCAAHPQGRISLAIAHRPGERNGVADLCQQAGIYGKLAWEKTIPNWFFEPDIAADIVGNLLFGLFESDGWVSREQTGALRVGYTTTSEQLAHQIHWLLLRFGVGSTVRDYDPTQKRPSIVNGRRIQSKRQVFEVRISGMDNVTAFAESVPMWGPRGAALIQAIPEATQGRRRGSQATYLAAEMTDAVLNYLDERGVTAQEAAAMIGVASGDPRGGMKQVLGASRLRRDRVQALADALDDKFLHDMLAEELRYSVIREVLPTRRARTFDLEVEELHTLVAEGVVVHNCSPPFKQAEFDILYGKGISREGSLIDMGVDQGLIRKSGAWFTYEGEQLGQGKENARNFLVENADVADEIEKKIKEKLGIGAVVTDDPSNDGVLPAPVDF

[21] = molecular target: Nucleotide-binding oligomerization domain-containing protein 2 (Homo sapiens, UniProt Q9HC29); assay: NOD2 signaling inhibitors, cell-based, luminescence, uHTS, HEK293 (AID 1566); assay type: functional
Sequence of Nucleotide-binding oligomerization domain-containing protein 2 (Q9HC29 whole entry, the tested form may be a part): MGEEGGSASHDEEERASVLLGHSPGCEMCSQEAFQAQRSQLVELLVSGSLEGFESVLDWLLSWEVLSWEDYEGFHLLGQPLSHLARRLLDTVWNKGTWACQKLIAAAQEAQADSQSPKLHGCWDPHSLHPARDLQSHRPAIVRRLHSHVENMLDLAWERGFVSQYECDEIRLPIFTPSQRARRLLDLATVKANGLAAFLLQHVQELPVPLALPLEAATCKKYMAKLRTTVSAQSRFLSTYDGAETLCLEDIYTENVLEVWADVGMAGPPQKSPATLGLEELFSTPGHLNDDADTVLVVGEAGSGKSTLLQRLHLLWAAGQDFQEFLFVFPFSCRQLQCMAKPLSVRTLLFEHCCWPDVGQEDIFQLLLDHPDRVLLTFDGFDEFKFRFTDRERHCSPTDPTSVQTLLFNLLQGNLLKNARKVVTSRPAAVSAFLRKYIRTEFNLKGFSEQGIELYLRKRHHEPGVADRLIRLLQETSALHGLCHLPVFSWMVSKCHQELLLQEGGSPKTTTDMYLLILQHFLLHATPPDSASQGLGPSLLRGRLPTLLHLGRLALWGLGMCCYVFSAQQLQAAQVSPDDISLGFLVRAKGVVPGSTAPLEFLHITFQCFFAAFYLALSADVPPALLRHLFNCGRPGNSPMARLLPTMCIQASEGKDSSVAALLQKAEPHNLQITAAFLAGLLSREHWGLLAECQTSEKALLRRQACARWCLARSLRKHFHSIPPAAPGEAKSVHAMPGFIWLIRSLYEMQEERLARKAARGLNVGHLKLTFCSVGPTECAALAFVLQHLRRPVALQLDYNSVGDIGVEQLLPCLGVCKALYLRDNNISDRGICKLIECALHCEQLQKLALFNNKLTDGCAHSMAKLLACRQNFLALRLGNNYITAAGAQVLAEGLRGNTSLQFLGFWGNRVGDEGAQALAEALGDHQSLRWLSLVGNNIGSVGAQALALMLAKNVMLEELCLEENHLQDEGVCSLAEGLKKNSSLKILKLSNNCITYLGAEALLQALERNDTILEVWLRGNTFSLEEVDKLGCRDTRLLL

[22] = molecular target: Beta Lactamase (Pseudomonas aeruginosa, UniProt Q932Y6); assay: beta-lactamase reporter inhibitor potency, dose response, artefact control for TLR9-MyD88 binding inhibitor project, BLA reporter cells, FRET fluorescence (AID 588341); assay type: cell-based;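 also: cell based assay in CHO-K1 cells stably expressing beta-lactamase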
Sequence of Beta Lactamase (Q932Y6 whole entry): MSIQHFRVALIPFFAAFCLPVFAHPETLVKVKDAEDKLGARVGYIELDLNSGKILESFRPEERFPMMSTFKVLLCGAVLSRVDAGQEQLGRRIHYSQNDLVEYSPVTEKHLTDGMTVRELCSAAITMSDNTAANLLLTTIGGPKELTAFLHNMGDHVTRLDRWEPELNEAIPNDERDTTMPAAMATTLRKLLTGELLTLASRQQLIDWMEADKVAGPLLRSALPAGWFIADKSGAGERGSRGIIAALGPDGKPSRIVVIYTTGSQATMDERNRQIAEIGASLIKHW

[23] = control 3'UTR Renilla luciferase suppression, dose response, counter-screen for Shn3 inhibitor project, cell-based, Clone20-Shn3RL, cherry-picked (AID 624133); assay type: functional
[24] = molecular target: Heat shock protein HSP 90-alpha (Homo sapiens, UniProt P07900); assay type: functional, organism-based
[25] = molecular target: T3, Replicative DNA helicase DnaB (Mycobacterium tuberculosis, UniProt P9WMR3); assay: DnaB intein splicing inhibitors, dose response, biochemical, cell-free fluorescence (AID 449749); assay type: functional
T3 sequence (P9WMR3 whole entry): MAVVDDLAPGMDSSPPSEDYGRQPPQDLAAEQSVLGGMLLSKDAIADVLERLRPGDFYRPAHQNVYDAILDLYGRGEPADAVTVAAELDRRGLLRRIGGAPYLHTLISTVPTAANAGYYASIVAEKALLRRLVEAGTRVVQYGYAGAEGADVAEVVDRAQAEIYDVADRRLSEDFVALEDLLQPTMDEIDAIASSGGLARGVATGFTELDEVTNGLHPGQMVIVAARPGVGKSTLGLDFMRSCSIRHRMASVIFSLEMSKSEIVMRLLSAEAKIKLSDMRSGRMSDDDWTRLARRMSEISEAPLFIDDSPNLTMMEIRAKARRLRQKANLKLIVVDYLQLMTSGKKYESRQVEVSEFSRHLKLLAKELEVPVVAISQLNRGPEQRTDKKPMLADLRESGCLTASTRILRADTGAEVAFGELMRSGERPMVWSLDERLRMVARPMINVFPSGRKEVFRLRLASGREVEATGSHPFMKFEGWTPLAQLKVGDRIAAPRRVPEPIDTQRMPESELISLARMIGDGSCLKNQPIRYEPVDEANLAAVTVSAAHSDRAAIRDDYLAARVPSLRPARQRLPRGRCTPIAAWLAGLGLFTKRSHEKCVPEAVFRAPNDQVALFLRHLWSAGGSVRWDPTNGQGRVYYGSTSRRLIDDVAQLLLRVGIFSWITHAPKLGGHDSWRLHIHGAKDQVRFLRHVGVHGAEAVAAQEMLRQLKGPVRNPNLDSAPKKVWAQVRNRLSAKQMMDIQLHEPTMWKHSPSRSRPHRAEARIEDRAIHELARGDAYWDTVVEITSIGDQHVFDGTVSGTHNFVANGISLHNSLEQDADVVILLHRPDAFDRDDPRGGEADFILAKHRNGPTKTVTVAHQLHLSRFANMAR

[26] = system: HEK293; assay: NOD2 signaling inhibitors in MDP-stimulated cells, cell-based, uHTS, luminescence (AID 2001); assay type: functional; conditions: Homo sapiens
[27] = system: CHO; assay: cytotoxicity in TLR9-MyD88 CHO cells, dose response, cytotoxicity control for TLR9-MyD88 binding inhibitor project, cell-based, luminescence (AID 588339); assay type: functional, hamster; conditions: Cricetulus griseus;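 also: CHO cells stably coexpressing TLR9 and MyD88 fusions from primary screen; compound exposure lasted 48 hours before viability readout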
[28] = system: HEK293; assay: NOD1 signaling inhibitors, primary screen, cell-based, luminescence, uHTS (AID 1578); assay type: functional; conditions: Homo sapiens
[29] = system: HEK293; assay: cells; assay type: functional, cell-based; conditions: Homo sapiens
[30] = Luminescence Cell-Based Dose Retest to Confirm Inhibitors of Cancer Stem Cells. [Related pubchem assays (depositor defined):AID2717, AID2721]; assay type: functional; conditions: Homo sapiens
[31] = Shn3 3'UTR reporter inhibitors, dose response, cell-based, Clone20 osteoblasts, firefly luciferase, cherry-picked (AID 624132); assay type: functional;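 also: firefly luciferase luminescence from reporter carrying the Shn3 3'UTR in osteoblasts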
[32] = molecular target: ATP-dependent translocase ABCB1 (Homo sapiens, UniProt P08183); assay: ABCB1 efflux pump inhibitor potency, dose response, Jurkat-DNR cells, JC-1, flow cytometry (AID 1689); assay type: functional
Sequence of ATP-dependent translocase ABCB1 (P08183 whole entry): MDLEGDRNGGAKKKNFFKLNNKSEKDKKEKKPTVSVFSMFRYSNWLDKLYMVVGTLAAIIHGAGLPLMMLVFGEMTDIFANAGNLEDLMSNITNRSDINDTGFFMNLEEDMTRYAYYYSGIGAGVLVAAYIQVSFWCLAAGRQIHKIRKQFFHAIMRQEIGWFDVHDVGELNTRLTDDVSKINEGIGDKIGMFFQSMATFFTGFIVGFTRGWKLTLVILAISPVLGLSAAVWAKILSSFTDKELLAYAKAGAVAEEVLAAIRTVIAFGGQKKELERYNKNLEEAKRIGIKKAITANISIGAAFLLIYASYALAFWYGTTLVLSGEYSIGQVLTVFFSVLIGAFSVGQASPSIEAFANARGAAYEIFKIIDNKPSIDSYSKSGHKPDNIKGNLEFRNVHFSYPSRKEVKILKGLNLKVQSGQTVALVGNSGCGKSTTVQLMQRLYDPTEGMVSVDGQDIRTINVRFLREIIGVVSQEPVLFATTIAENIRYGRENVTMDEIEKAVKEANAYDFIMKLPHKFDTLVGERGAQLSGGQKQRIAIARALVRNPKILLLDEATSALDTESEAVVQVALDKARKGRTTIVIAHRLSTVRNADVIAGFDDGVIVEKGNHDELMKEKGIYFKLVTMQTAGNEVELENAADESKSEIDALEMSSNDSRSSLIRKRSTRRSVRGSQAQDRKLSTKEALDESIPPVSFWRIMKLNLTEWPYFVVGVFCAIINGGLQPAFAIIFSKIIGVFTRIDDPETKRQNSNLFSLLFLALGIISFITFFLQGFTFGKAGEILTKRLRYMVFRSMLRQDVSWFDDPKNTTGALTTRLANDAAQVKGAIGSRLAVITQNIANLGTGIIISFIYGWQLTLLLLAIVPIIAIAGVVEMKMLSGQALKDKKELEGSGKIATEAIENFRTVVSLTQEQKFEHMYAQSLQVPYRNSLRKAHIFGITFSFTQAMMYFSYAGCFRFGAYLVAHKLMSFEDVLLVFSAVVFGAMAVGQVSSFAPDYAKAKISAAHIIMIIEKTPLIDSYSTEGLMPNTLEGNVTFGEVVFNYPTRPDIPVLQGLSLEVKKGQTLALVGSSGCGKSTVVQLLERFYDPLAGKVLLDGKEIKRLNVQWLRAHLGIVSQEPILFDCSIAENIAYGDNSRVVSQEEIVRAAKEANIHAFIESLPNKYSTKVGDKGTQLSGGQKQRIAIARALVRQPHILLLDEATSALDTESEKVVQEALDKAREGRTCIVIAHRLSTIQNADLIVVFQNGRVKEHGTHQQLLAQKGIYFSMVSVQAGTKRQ

[33] = molecular target: Broad substrate specificity ATP-binding cassette transporter ABCG2 (Homo sapiens, UniProt Q9UNQ0); assay: ABCG2 efflux pump inhibitors, dose response, Ig-MXP3 cells, flow cytometry (AID 1690); assay type: functional
Sequence of Broad substrate specificity ATP-binding cassette transporter ABCG2 (Q9UNQ0 whole entry): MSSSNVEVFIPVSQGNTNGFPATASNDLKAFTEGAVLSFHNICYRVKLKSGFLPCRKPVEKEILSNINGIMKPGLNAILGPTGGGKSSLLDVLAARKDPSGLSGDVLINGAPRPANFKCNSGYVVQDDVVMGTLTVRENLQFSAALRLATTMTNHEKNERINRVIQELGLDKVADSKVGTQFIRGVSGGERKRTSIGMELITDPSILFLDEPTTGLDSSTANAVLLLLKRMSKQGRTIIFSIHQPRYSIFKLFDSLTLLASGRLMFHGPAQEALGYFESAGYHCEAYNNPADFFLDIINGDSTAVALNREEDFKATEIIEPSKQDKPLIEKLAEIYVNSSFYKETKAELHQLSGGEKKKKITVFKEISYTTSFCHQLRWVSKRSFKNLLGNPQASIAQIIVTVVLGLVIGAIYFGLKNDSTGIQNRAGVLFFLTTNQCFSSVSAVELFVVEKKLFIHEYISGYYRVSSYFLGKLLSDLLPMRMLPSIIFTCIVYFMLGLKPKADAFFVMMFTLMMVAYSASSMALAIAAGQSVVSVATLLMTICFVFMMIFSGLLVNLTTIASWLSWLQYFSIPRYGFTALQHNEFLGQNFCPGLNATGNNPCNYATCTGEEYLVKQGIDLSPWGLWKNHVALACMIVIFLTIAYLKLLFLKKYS

[34] = molecular target: T4, Beta-2 adrenergic receptor (Homo sapiens, UniProt P07550); assay: beta2AR agonists driving receptor internalization, dose response, cell-based, FAP fluorogen, flow cytometry, cherry pick 1 (AID 588763); assay type: functional
T4 sequence (P07550 whole entry): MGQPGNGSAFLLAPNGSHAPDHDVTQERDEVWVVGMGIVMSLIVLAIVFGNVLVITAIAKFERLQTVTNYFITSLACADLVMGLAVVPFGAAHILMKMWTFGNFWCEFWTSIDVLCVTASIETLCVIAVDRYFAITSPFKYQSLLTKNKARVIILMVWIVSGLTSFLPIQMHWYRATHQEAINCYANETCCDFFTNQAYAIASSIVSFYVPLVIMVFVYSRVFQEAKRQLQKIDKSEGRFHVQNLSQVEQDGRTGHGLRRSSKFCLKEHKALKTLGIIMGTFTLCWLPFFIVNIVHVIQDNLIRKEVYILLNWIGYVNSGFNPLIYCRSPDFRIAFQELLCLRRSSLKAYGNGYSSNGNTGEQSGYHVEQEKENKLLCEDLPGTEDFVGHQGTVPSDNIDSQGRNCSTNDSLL

[35] = molecular target: T4, Beta-2 adrenergic receptor; assay: Dose response for HTS for Beta-2AR agonists via FAP method from Powderset1.; assay type: functional
[36] = system: HeLa; assay: HeLa cell cytotoxicity, dose response, cytotoxicity control, ATP luminescence, cherry-pick samples (AID 687004); assay type: functional, cell-based; conditions: Homo sapiens

NC(=O)N=Nc1c2nc3ccccc3[nH]c-2c2ccccc12
CC50 [1]: 11.9 µM (active) | EC50 [2]: > 120 µM (not active) | CC50 [3]: 23.5 µM (active) | AC50 [4]: 8.41 µM (active) | CC50 [5]: > 20 µM (active) | EC50 [6]: 13 µM (active) | AbsAC35_uM [7]: 58.66 µM | EC50 [8]: > 150 µM (not active) | IC50 [9]: 11.1 µM (active) | EC50 [10]: 7.71 µM (active) | CC50 [11]: 7.97 µM (active) | EC50 [12]: 46.2 µM (active) | EC50 [13]: > 120 µM (not active) | IC50 [14]: 2.88 µM (active)

CCC(=O)Nc1sc(C(=O)Nc2ccccc2)c(C)c1C(=O)OC
AC50 [15]: 26 µM (active)

Cc1ccccc1CS(=O)(=O)c1ncc(Cl)c(C(=O)Nc2ccc(F)cc2)n1
IC50 [16]: 19.7 µM (active) | AC50 [17]: 40.4 µM (active) | IC50 [18]: > 66.6 µM (inactive) | EC50 [19]: 30.5 µM (active) | EC50 [20]: 2.79 µM (active) | EC50 [21]: > 20 µM (inactive) | IC50 [22]: 6.25 µM (active) | AC50 [23]: 11.5 µM (active) | AC50 [24]: 2.41 µM (active) | AC50 [25]: 1.22 µM (active) | IC50 [26]: 10 µM (inactive) | IC50 [27]: 4.01 µM (active) | EC50 [28]: 8.92 µM (active) | IC50 [29]: > 20 µM (inactive) | AC50 [30]: 2.2 µM (active) | AC50 [31]: 3 µM (active)

CCOc1ccc(NC(=O)c2cccc3c2C(=O)N(CCOC)C3)cc1
EC50 [32]: 8.31 µM (inactive) | EC50 [33]: 1.6 µM (active)

CCc1ccc(CN2CCC(Oc3ccc(C(=O)N4CCCCC4)cc3)CC2)cc1
EC50 [34]: 1.75 µM (active) | EC50 [35]: 1.83 µM (active)

CC(C)NC(=O)Nc1ccc2c(c1)CC(=O)N([C@@H](C)CO)C[C@@H](C)[C@@H](CN(C)Cc1ccc(Oc3ccccc3)cc1)O2
AC50 [36]: 38.8 µM (active)
